{
  "source": "patent US8008329B2",
  "about": "(Dong Wha Pharmaceutical Co., Ltd., priority 2008, dated 2011)",
  "key": {"[1]": {"test_system": "osteoclast differentiation", "experiment": "Osteoclast differentiation in co-culture of mouse bone marrow cells and ST2 cells, TRAP staining (Examples 8-9)", "assay_type": "cell-based", "details": "for % number of osteoclast (vs. solvent control group): day 7; for activity at 0.1 µM: Mus musculus, Osteoclast, 168 h, day 7, read-out: % number of osteoclast (vs. solvent control group)", "procedure,_shortened": "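Readout was TRAP-positive multinucleated (≥6 nuclei) cells on day 7, reported as % of 0.1% DMSO control, mean±SD of 4 wells. Cells were mouse (male ddY) bone marrow plus ST2 co-cultures driven by 10^−8 M vitamin D3/dexamethasone. Benzamidines, alendronic acid or risedronic acid were added at 0.1 μM alone or combined, with media renewed days 3 and 5.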"}, "[2]": {"test_system": "osteoclast differentiation", "experiment": "Osteoclast differentiation in co-culture of mouse bone marrow cells and calvarial osteoblasts, TRAP staining (Examples 1-7)", "assay_type": "cell-based", "details": "day 7"}, "[3]": {"details": "singly treated with 0.1 μM alendronic acid"}, "[4]": {"details": "singly treated with 0.1 μM risedronic acid"}},
  "note": "Where “and” joins values, the source holds several entries; their conditions need not be identical. Identical values can stand only once. Marks after values point to notes of the source that are not given here.",
  "data": [
    {"smiles": "CCCN(CCC)c1nc(-c2ccc(OCCCCCOc3ccc(C(=N)NO)cc3)cc2)c(CC)s1", "note": "[Compound 138, N-hydroxy-4-{5-[4-(2-dipropylamino-5-ethyl-1,3-thiazol-4-yl)phenoxy]pentyloxy}-benzamidine]", "values": [
      {"measurement": "% number of osteoclast (vs. solvent control group)", "setting": "[1]; Combination treatment (alendronic acid + compounds), 0.1 μM each", "value": "18 ± 6.8^ab %"},
      {"measurement": "% number of osteoclast (vs. solvent control group)", "setting": "[1]; Combination treatment (risedronic acid + compounds), 0.1 μM each", "value": "31 ± 3.2^ac %"},
      {"measurement": "activity at 0.1 µM", "setting": "[1]; Individual treatment (compounds), 0.1 μM", "value": "57 ± 7.2", "unit": "%"},
      {"measurement": "activity at 0.1 µM", "setting": "[2]; Mus musculus, Osteoclast, 168 h, individual treatment of Compound (0.1 μM), read-out: % number of osteoclast (vs. solvent control group)", "value": 71, "unit": "%"},
      {"measurement": "% number of osteoclast (vs. solvent control group)", "setting": "[2]; combination treatment of alendronic acid (0.2 μM) with compound (0.1 μM)", "value": "32% and 32 ± 8.9*^#@ %"},
      {"measurement": "% number of osteoclast (vs. solvent control group)", "setting": "[2]; combination treatment of clodronic acid (1 μM) with compound (0.1 μM)", "value": "54 ± 11.9*^#@ %"},
      {"measurement": "% number of osteoclast (vs. solvent control group)", "setting": "[2]; combination treatment of etidronic acid (2 μM) with compound (0.1 μM)", "value": "40% and 40 ± 8.4*^#@ %"},
      {"measurement": "% number of osteoclast (vs. solvent control group)", "setting": "[2]; combination treatment of ibandronic acid (0.1 μM) with compound (0.1 μM)", "value": "45 ± 7.6*^#@ %"},
      {"measurement": "% number of osteoclast (vs. solvent control group)", "setting": "[2]; combination treatment of pamidronic acid (0.1 μM) with compound (0.1 μM)", "value": "42% and 42 ± 6.2*^#@ %"},
      {"measurement": "% number of osteoclast (vs. solvent control group)", "setting": "[2]; combination treatment of risedronic acid (0.1 μM) with compound (0.1 μM)", "value": "35% and 35 ± 8.2*^#@ %"},
      {"measurement": "% number of osteoclast (vs. solvent control group)", "setting": "[2]; combination treatment of zoledronic acid (0.01 μM) with compound (0.1 μM)", "value": "48 ± 8.9*^#@ %"},
      {"measurement": "% number of osteoclast (vs. solvent control group)", "setting": "[2]; individual treatment of Compound (0.1 μM)", "value": "71 ± 6.5", "unit": "%"}
    ]},
    {"smiles": "NCCCC(O)(P(=O)(O)O)P(=O)(O)O", "note": "[alendronic acid, reference compound]", "values": [
      {"measurement": "activity at 0.1 µM", "setting": "[1]; [3]", "value": 76, "unit": "%"},
      {"measurement": "% number of osteoclast (vs. solvent control group)", "setting": "[1]; [3]", "value": "76 ± 6.2", "unit": "%"},
      {"measurement": "activity at 0.2 µM", "setting": "[2]; Mus musculus, Osteoclast, 168 h, individual treatment of alendronic acid (0.2 μM), read-out: % number of osteoclast (vs. solvent control group)", "value": 80, "unit": "%"},
      {"measurement": "% number of osteoclast (vs. solvent control group)", "setting": "[2]; individual treatment of alendronic acid (0.2 μM)", "value": "80 ± 5.7", "unit": "%"}
    ]},
    {"smiles": "O=P(O)(O)C(O)(Cc1cccnc1)P(=O)(O)O", "note": "[risedronic acid, reference compound]", "values": [
      {"measurement": "activity at 0.1 µM", "setting": "[1]; [4]", "value": 69, "unit": "%"},
      {"measurement": "% number of osteoclast (vs. solvent control group)", "setting": "[1]; [4]", "value": "69 ± 6.7", "unit": "%"},
      {"measurement": "activity at 0.1 µM", "setting": "[2]; Mus musculus, Osteoclast, 168 h, individual treatment of risedronic acid (0.1 μM), read-out: % number of osteoclast (vs. solvent control group)", "value": "~82", "unit": "%"},
      {"measurement": "% number of osteoclast (vs. solvent control group)", "setting": "[2]; individual treatment of risedronic acid (0.1 μM)", "value": "82 ± 5.2", "unit": "%"}
    ]}
  ]
}
